Test [1] deals with lymphocyte proliferation, cells from the thymus of normal BALB/c mice (PHA and IL-1). Briefly: comitogen-induced thymocyte proliferation procedure (LAF). As to conditions: for LAF (ratio): thymocytes 72 hours with PHA and IL-1, rapamycin 1.0. The format is cell-based. As to the method:
(§1) Immunosuppressive activity was evaluated in an in vitro standard pharmacological test procedure to measure lymphocyte proliferation (LAF) and in two in vivo standard pharmacological test procedures. The first in vivo procedure was a popliteal lymph node (PLN) test procedure which measured the effect of compounds of this invention on a mixed lymphocyte reaction and the second in vivo procedure evaluated the survival time of a pinch skin graft.
Briefly, cells from the thymus of normal BALB/c mice are cultured for 72 hours with PHA and IL-1 and pulsed with tritiated thymidine during the last six hours. […] Cells are harvested and incorporated; radioactivity is determined. inhibition of lymphoproliferation is assessed in percent change in counts per minute from non-drug treated controls. The results are expressed by the following ratio: [formula]

Test [2] concerns pinch skin graft. Description: survival time of pinch skin graft. Format: in vivo, mouse (male DBA/2 donors, male BALB/c recipients). The note with it: intraperitoneally, mean graft survival time ± S.D. As to the method: as §1
The second in vivo test procedure is designed to determine the survival time of pinch skin graft from male DBA/2 donors transplanted to male BALB/c recipients. The method is adapted from Billingham R. E. and Medawar P. B., J. Exp. Biol. 28:385-402, (1951). Briefly, a pinch skin graft from the donor is grafted on the dorsum of the recipient as a homograft, and an autograft is used as control in the same region. […] Untreated recipients serve as rejection control. The graft is monitored daily and observations are recorded until the graft becomes dry and forms a blackened scab. This is considered as the rejection day. The mean graft survival time (number of days±S.D.) of the drug treatment group is compared with the control group.

The test system of test [3] is Candida albicans 3669. Description: antifungal plate test procedure. Format: cell-based. As to conditions: strain 3669. The procedure: (§2) The following represents the typical procedure used. Compound to be tested was placed on sterile dried 1/4" plate disks, and allowed to dry. Agar plates were seeded with fungi and allowed to solidify. The impregnated disks were placed on the seeded Agar surface and incubated for the time required for the particular culture. Results are expressed in MIC (μg/ml) to inhibit growth.

Test [4] relates to Candida albicans ATCC 10231. Briefly: antifungal plate test procedure. Format: cell-based. The note with it: ATCC 10231. The procedure: as §2
For test [5], the system named is Candida albicans ATCC 38246. Briefly: antifungal plate test procedure. Format: cell-based. As to conditions: ATCC 38246. The procedure:
as §2

The subject of test [6] is Candida albicans ATCC 38247. Description: antifungal plate test procedure. Format: cell-based. As to conditions: ATCC 38247. As to the method: as §2
Test [7] relates to Candida albicans ATCC 38248. Description: antifungal plate test procedure. Format: cell-based. As to conditions: ATCC 38248. The procedure: as §2
For test [8], the system named is 5 strains of Candida albicans. Description: antifungal plate test procedure, 5 strains (overall). Format: cell-based. As to conditions: not evaluated; considered because of structural similarity. The procedure: as §2
Test [9] relates to mixed lymphocyte reaction, popliteal lymph node. Briefly: popliteal lymph node (PLN) test procedure, in vivo mixed lymphocyte reaction. The note with it: p.o. daily Day 0 to Day 4, carboxymethyl cellulose vehicle; rapamycin 1.0. Details: species or system mouse (BALB/c donors, C3H recipients). The procedure:
as §1
A mixed lymphocyte reaction (MLR) occurs when lymphoid cells from genetically distinct animals are combined in tissue culture. Each stimulates the other to undergo blast transformation which results in increased DNA synthesis that can be quantified by the incorporation of tritiated thymidine. Since stimulating a MLR is a function of disparity at Major Histocompatibility antigens, an in vivo popliteal lymph node (PLN) test procedure closely correlates to host vs. graft disease. Briefly, irradiated spleen cells from BALB/c donors are injected into the right hind foot pad of recipient C3H mice. The drug is given daily, p.o. from Day 0 to Day 4. On Day 3 and Day 4, tritiated thymidine is given i.p., b.i.d. On Day 5, the hind popliteal lymph nodes are removed and dissolved, and radioactivity counted. […] Percent suppression is calculated using the non-drug treated animals as allogenic control.

In test [10] the test system is Candida albicans. The note with it: in vitro and in vivo; cited from earlier work.
The subject of test [11] is transplant rejection. As to conditions: cited from earlier work.
For test [12] the following is noted: in vivo; cited from earlier work.

“Also recorded” adds a separate entry of the source. Structures can show the parent of a compound that is named as a salt.

Consider `CO[C@H]1C[C@@H]2CC[C@@H](C)[C@@](O)(O2)C(=O)C(=O)N2CCCC[C@H]2C(=O)O[C@H]([C@H](C)C[C@@H]2CC[C@@H](OC(=O)COCC(=O)O)[C@H](OC)C2)CC(=O)[C@H](C)/C=C(\C)[C@@H](OC(=O)COCC(=O)O)[C@@H](OC)C(=O)[C@H](C)C[C@H](C)/C=C/C=C/C=C/1C` [Example 9, Rapamycin-31,42-bishemi-3'-oxoglutarate disodium salt], for which, in test [1] (disodium salt), the “LAF (ratio)” value is 0.22. The “Skin Graft (days + SD), mean graft survival time” value (“Skin Graft (days + SD)” for short) in [2] (disodium salt) came to 10.2 ± 1.2 days. Also, the MIC is > 0.4 µg/mL in test [3]; 0.2 µg/mL in [4] (disodium salt); > 0.4 µg/mL in test [5]; 0.2 µg/mL in [6] (disodium salt); 0.4 µg/mL in test [7] (disodium salt).
As for `CO[C@H]1C[C@@H]2CC[C@@H](C)[C@@](O)(O2)C(=O)C(=O)N2CCCC[C@H]2C(=O)O[C@H]([C@H](C)C[C@@H]2CC[C@@H](OC(=O)COCC(=O)O)[C@H](OC)C2)CC(=O)[C@H](C)/C=C(\C)[C@@H](OC(=O)COCC(=O)O)[C@@H](OC)C(=O)[C@H](C)C[C@H](C)/C=C/C=C/C=C/1C` [Example 10, Rapamycin-31,42-bishemi-3'-oxoglutarate bistromethamine salt], the “LAF (ratio)” value in [1] is 0.18. In addition, the “Skin Graft (days + SD)” value in [2] is 10.8 ± 0.8 days. The MIC in [3] was > 0.4 µg/mL; in test [4] it was 0.1 µg/mL; in test [5], > 0.4 µg/mL; in test [6], 0.2 µg/mL; in test [7], 0.4 µg/mL.
For `COC(=O)CCC(=O)O[C@@H]1CC[C@@H](C[C@@H](C)[C@@H]2CC(=O)[C@H](C)/C=C(\C)[C@@H](O)[C@@H](OC)C(=O)[C@H](C)C[C@H](C)/C=C/C=C/C=C(\C)[C@@H](OC)C[C@@H]3CC[C@@H](C)[C@@](O)(O3)C(=O)C(=O)N3CCCC[C@H]3C(=O)O2)C[C@H]1OC` [Example 12, Rapamycin-42-monomethylsuccinate], the inhibition at 0.1 µM in test [1] (Mus musculus, Lymphocyte, percent inhibition at 100 nM) worked out at 97%. Moreover, the “Skin Graft (days + SD)” value in test [2] was determined as 10.8 ± 0.4 days. For the same compound, the antifungal activity result in test [8] was “considered to have antifungal activity”.
In the case of `CO[C@H]1C[C@@H]2CC[C@@H](C)[C@@](O)(O2)C(=O)C(=O)N2CCCC[C@H]2C(=O)O[C@H]([C@H](C)C[C@@H]2CC[C@@H](OC(=O)CCC(=O)OCc3ccc(C(F)(F)F)cc3)[C@H](OC)C2)CC(=O)[C@H](C)/C=C(\C)[C@@H](O)[C@@H](OC)C(=O)[C@H](C)C[C@H](C)/C=C/C=C/C=C/1C` [Example 13, Rapamycin-42-(4-trifluoromethylbenzyl)succinate], the “LAF (ratio)” value in test [1] was 2.11. Besides, the “Skin Graft (days + SD)” value in test [2] stood at 10.6 ± 0.9 days. Moreover, the antifungal activity entry in test [8] is “considered to have antifungal activity”.
For `CO[C@H]1C[C@@H]2CC[C@@H](C)[C@@](O)(O2)C(=O)C(=O)N2CCCC[C@H]2C(=O)O[C@H]([C@H](C)C[C@@H]2CC[C@@H](O)[C@H](OC)C2)CC(=O)[C@H](C)/C=C(\C)[C@@H](O)[C@@H](OC)C(=O)[C@H](C)C[C@H](C)/C=C/C=C/C=C/1C` [Rapamycin], in [9], the “PLN (ratio)” value worked out at 1.0. Further, the antifungal activity entry in [10] was “found to have antifungal activity, particularly against Candida albicans, both in vitro and in vivo”. Moreover, the immunosuppressive effect result in test [11] was “immunosuppressive effects”. In test [12], the “usefulness in preventing or treating disease” value was “systemic lupus erythematosus; also recorded: pulmonary inflammation; also recorded: insulin dependent diabetes mellitus; also recorded: smooth muscle cell proliferation and intimal thickening following vascular injury; also recorded: ocular inflammation”.

By MIC is commonly meant the least concentration at which growth counts as inhibited. Usually inhibition stands for the share of the control response that was lost under treatment. High values mean a response far below the control, low ones a response near the control.
